Laboratory results published in PubChem BioAssay (NCI).
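Tested at 5 concentrations; 48 h exposure; 96-well plates; endpoints linearly interpolated, else capped at highest concentration. Abbreviation: GI50, concentration required for 50% inhibition of growth. The concentration for full growth arrest is given as TGI.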

How the values were obtained:
Assay in all cases: NCI anticancer screen, dose series, 48 h
MOLT-4 leukemia = tested on: MOLT-4 leukemia
U251 CNS = tested on: U251 CNS
HOP-92 NSCLC = tested on: HOP-92 NSCLC
HCT-15 colon = tested on: HCT-15 colon
SW-620 colon = tested on: SW-620 colon
OVCAR-4 ovarian = tested on: OVCAR-4 ovarian
NCI-H522 lung = tested on: NCI-H522 lung
COLO 205 colon = tested on: COLO 205 colon
SF-295 CNS = tested on: SF-295 CNS
RPMI-8226 leukemia = tested on: RPMI-8226 leukemia

Compound | TGI (MOLT-4 leukemia) [µM] | TGI (U251 CNS) [µM] | TGI (HOP-92 NSCLC) [µM] | TGI (HCT-15 colon) [µM] | TGI (SW-620 colon) [µM] | TGI (OVCAR-4 ovarian) [µM] | TGI (NCI-H522 lung) [µM] | TGI (COLO 205 colon) [µM] | TGI (SF-295 CNS) [µM] | TGI (RPMI-8226 leukemia) [µM] | GI50 (MOLT-4 leukemia) [µM] | GI50 (HOP-92 NSCLC) [µM] | GI50 (SW-620 colon) [µM] | GI50 (RPMI-8226 leukemia) [µM] | GI50 (COLO 205 colon) [µM] | GI50 (SF-295 CNS) [µM] | GI50 (U251 CNS) [µM] | GI50 (HCT-15 colon) [µM] | GI50 (OVCAR-4 ovarian) [µM]
COc1ccc(-c2nnc3n(C)c4ccccc4n3c2=O)cc1 | > 100 | 84.9 | > 100 | > 100 | > 100 | > 100 | > 100 | > 100 | 84.3 | – | – | – | – | – | – | – | – | – | –
COc1ccc([C@H]2CC3C(=O)N(c4ccc(OC)cc4)C(=O)C3c3[nH]c4ccccc4c32)cc1 (stereo partly specified) | > 100 | > 100 | 78.4 | > 100 | > 100 | > 100 | > 100 | > 100 | 78.3 | – | – | – | – | – | – | – | – | – | –
O=S(=O)(c1ccccc1)c1ccc(-c2nc(-c3ccc4c(c3)Sc3ccccc3S4)cs2)cc1 | > 100 | > 100 | 62.9 | > 100 | > 100 | > 100 | – | > 100 | 47.4 | > 100 | – | – | – | – | – | – | – | – | –
COc1ccc(N2C(=O)/C(=C/c3ccc(N(CCC#N)CCC#N)cc3)N=C2c2ccccc2)cc1 | > 100 | > 100 | > 100 | > 100 | > 100 | > 100 | – | > 100 | > 100 | > 100 | – | – | – | – | – | – | – | – | –
O=S(O)c1cc(Cl)c(O)c(Cl)c1 | > 100 | > 100 | – | – | – | > 100 | > 100 | – | – | – | – | – | – | – | – | – | – | – | –
COc1cccc(OC)c1NC(=O)C(=O)Nn1c(NNC(=O)c2ccncc2)nc2ccccc2c1=O | > 100 | > 100 | > 100 | > 100 | > 100 | > 100 | > 100 | – | > 100 | > 100 | – | – | – | – | – | – | – | – | –
O=C1CN(c2cccc(C(F)(F)F)c2)C(=O)CN1CCN1CC(=O)N(c2cccc(C(F)(F)F)c2)CC1=O | > 100 | > 100 | – | > 100 | > 100 | > 100 | > 100 | > 100 | > 100 | > 100 | – | – | – | – | – | – | – | – | –
O=C(NC1C/C(=N/O)c2c(Br)sc(Br)c21)C(F)(F)F (stereo unspecified) | > 100 | 39.2 | 32.9 | > 100 | > 100 | 43.7 | > 100 | > 100 | > 100 | – | – | – | – | – | – | – | – | – | –
Cn1c(=O)c2[nH]c(SC/C(=N/O)c3ccc(Br)cc3)nc2n(C)c1=O | 64 | – | 4.56 | – | > 100 | – | – | > 100 | 4.1 | > 100 | 20.4 | 2.02 | > 100 | 34.7 | > 100 | 1.82 | – | – | –
CC(=O)NC(C)(C)C1CCC(C)CC1 (stereo unspecified) | > 100 | > 100 | – | > 100 | > 100 | > 100 | – | > 100 | > 100 | > 100 | – | – | – | – | – | – | – | – | –
CSC(C1c2ccccc2N(C)c2[nH]c(=O)n(C)c(=O)c21)S(=O)(=O)c1ccc(C)cc1 (stereo unspecified) | > 100 | > 100 | > 100 | > 100 | > 100 | > 100 | 46.6 | > 100 | > 100 | – | – | – | – | – | – | – | – | – | –
CCN(CC)CCC1CCCCN1CC(=O)N1c2cc(Cl)ccc2NC(=O)CC1C (stereo unspecified) | > 100 | > 100 | > 100 | > 100 | – | > 100 | > 100 | > 100 | > 100 | > 100 | – | – | – | – | – | – | – | – | –
Cc1nn2c(c1C#N)NNc1c-2sc(=N)nnc1=O | > 100 | > 100 | > 100 | – | > 100 | > 100 | > 100 | > 100 | > 100 | > 100 | – | – | – | – | – | – | – | – | –
O=c1[nH]cnc2c1cnn2Cc1cnnn1COCCO | > 100 | > 100 | > 100 | > 100 | > 100 | > 100 | > 100 | > 100 | > 100 | – | – | – | – | – | – | – | – | – | –
CCSc1nc(N/N=C/c2cccs2)c2cnn(CO)c2n1 | – | 30.1 | > 100 | 15.7 | 24.2 | > 100 | 15.5 | 29.7 | 29.8 | – | – | – | – | – | – | – | – | – | –
O=C(O)c1nn(-c2ccccc2)nc1-c1nn(-c2ccccc2)nc1C(=O)O | > 100 | > 100 | > 100 | > 100 | > 100 | > 100 | – | > 100 | > 100 | > 100 | – | – | – | – | – | – | – | – | –
Cc1nc2ccc(NC3OCC(O)C(O)C3O)cc2c(=O)n1-c1ccccc1 (stereo unspecified) | > 100 | > 100 | – | > 100 | > 100 | > 100 | > 100 | > 100 | > 100 | > 100 | – | – | – | – | – | – | – | – | –
CSc1nc(NCc2ccccc2)c2cnn(COCCO)c2n1 | 86.7 | > 100 | > 100 | – | > 100 | > 100 | > 100 | 85.7 | > 100 | > 100 | – | – | – | – | – | – | – | – | –
Brc1ccc(-c2cc3c(cc2C2SCCS2)OCO3)cc1 | > 100 | > 100 | – | > 100 | > 100 | > 100 | 40.9 | > 100 | > 100 | – | – | – | – | – | – | – | – | – | –
C(=C/c1nnnn1-c1ccccc1)/Nc1ccccc1 | > 100 | > 100 | 87.3 | 44.2 | > 100 | – | 81.8 | > 100 | 85.3 | > 100 | – | – | – | – | – | – | – | – | –
CCN(C(=O)N[C@H](C(=O)N[C@@H](CSC)C(=O)N[C@@H](C)C(=O)OC)C(C)C)c1ccccc1 | 26.7 | 29.4 | 26.3 | 36.2 | 28 | 47.4 | 22.3 | 32.4 | 36.7 | – | – | – | – | – | – | – | – | – | –
O=C1C(=C([O-])c2ccccc2)C(=O)c2ccccc21.O=C1C(=C([O-])c2ccccc2)C(=O)c2ccccc21.[Ni+2] | – | > 100 | – | > 100 | > 100 | > 100 | – | – | > 100 | > 100 | – | – | 58.9 | > 100 | – | 41.4 | 34.5 | 47.2 | 61.6
